Assay results published in ChEMBL document CHEMBL1133784, “Inhibition of hepatitis C virus NS3 protease activity by product-based peptides is dependent on helicase domain” (Bioorg Med Chem Lett, 2001).
Where a SMILES comes first, the peptide text is derived from it. [ ]: non-standard residue; d: D form. Dip = N[C@H](C(=O)O)C(c1ccccc1)c1ccccc1; 2Nal = N[C@@H](Cc1ccc2ccccc2c1)C(=O)O; dGla = N[C@H](CC(C(=O)O)C(=O)O)C(=O)O; Cha = N[C@@H](CC1CCCCC1)C(=O)O

Columns and labels:
NS3 [1] = biological target: T1, NS3 (Hepatitis C virus, UniProt A3EZJ3); test: Inhibitory activity against hepatitis C virus (HCV) NS3 protease (full-length); design: species or system Hepacivirus hominis
T1 sequence (A3EZJ3 whole entry, the tested form may be a part): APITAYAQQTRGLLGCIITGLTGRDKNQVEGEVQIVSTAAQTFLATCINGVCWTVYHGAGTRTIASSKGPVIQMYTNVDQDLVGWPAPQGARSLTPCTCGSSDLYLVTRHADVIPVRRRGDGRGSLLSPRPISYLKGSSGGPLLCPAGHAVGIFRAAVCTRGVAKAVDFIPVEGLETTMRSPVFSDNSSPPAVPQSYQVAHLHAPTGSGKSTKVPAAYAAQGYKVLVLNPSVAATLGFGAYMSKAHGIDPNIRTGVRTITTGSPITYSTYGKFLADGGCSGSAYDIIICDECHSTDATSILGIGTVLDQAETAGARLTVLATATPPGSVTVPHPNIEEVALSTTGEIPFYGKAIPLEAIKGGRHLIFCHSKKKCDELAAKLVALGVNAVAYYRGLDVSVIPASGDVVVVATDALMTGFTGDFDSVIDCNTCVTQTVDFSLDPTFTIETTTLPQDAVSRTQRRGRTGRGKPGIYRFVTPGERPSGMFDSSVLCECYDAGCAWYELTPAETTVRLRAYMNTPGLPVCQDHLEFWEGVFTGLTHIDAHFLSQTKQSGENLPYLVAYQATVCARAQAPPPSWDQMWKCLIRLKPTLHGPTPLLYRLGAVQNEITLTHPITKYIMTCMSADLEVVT

NS3 [2] = biological target: T1, NS3; test: Inhibitory activity against hepatitis C virus (HCV) NS3 protease (isolated domain); design: species or system Hepacivirus hominis
NS3 (Hepatitis C virus) = NS3 (Hepatitis C virus) (UniProt A3EZJ3); test: Inhibitory activity against hepatitis C virus (HCV) NS3 protease (isolated domain) at a concentration of 6 uM; details: Hepacivirus hominis
Sequence of NS3 (Hepatitis C virus) (A3EZJ3 as listed by the source): as the sequence (A3EZJ3 whole entry, the tested form may be a part) above

Compound	Ki (NS3 [1]) [µM]	Ki (NS3 [2]) [µM]	inhibition (NS3 (Hepatitis C virus)) [%]
CC[C@H](C)[C@H](NC(C)=O)C(=O)N[C@@H](CC1CCCCC1)C(=O)N[C@@H](CS)C(=O)O (Ac-Ile-[Cha]-Cys-OH)	25		
CC(C)C[C@H](NC(=O)[C@@H](CCC(=O)O)NC(=O)[C@@H](N)CC(=O)O)C(=O)N[C@@H](CCC(=O)O)C(=O)N[C@@H](CC1CCCCC1)C(=O)N[C@@H](CS)C(=O)O	1.54		
CC(=O)N[C@@H](CCC(=O)O)C(=O)N[C@@H](CC1CCCCC1)C(=O)N[C@@H](CS)C(=O)O (Ac-Glu-[Cha]-Cys-OH)	4.1	230	
CC[C@H](C)[C@H](NC(=O)[C@@H](NC(C)=O)C(c1ccccc1)c1ccccc1)C(=O)N[C@@H](CC1CCCCC1)C(=O)N[C@@H](CS)C(=O)O (Ac-[Dip]I[Cha]C-OH)	2.1	50	
CC(=O)N[C@@H](CC(=O)O)C(=O)N[C@@H](CCC(=O)O)C(=O)N[C@H](C(=O)N[C@@H](CCCCN)C(=O)N[C@@H](CC1CCCCC1)C(=O)N[C@@H](CS)C(=O)O)C(c1ccccc1)c1ccccc1 (Ac-DE[Dip]K[Cha]C-OH)	1.24		8
CSCC[C@H](NC(=O)[C@H](CCC(=O)O)NC(=O)[C@H](CC(=O)O)NC(C)=O)C(=O)N[C@@H](CCC(=O)O)C(=O)N[C@@H](CC1CCCCC1)C(=O)N[C@@H](CS)C(=O)O (Ac-DEME[Cha]C-OH)	0.44	0.4	
CC(=O)N[C@@H](CC(=O)O)C(=O)N[C@@H](CCC(=O)O)C(=O)N[C@H](C(=O)N[C@@H](CCC(=O)O)C(=O)N[C@@H](CC1CCCCC1)C(=O)N[C@@H](CS)C(=O)O)C(c1ccccc1)c1ccccc1 (Ac-DE[Dip]E[Cha]C-OH)	0.041	0.025	
CC(=O)N[C@H](C(=O)N[C@@H](CCC(=O)O)C(=O)N[C@@H](CC1CCCCC1)C(=O)N[C@@H](CS)C(=O)O)C(c1ccccc1)c1ccccc1 (Ac-[Dip]E[Cha]C-OH)	1.1	15	
CC[C@H](C)[C@H](NC(=O)[C@@H](NC(=O)[C@H](CCC(=O)O)NC(=O)[C@H](CC(=O)O)NC(C)=O)C(c1ccccc1)c1ccccc1)C(=O)N[C@@H](CC1CCCCC1)C(=O)N[C@@H](CS)C(=O)O (Ac-DE[Dip]I[Cha]C-OH)	0.22	0.03	
CC[C@H](C)[C@H](NC(=O)[C@@H](NC(=O)[C@H](CCC(=O)O)NC(C)=O)C(c1ccccc1)c1ccccc1)C(=O)N[C@@H](CC1CCCCC1)C(=O)N[C@@H](CS)C(=O)O (Ac-E[Dip]I[Cha]C-OH)	1	1.2	
CC(=O)N[C@@H](CC(=O)O)C(=O)N[C@H](CCC(=O)O)C(=O)N[C@@H](CC(C)C)C(=O)N[C@@H](CCC(=O)O)C(=O)N[C@@H](CC1CCCCC1)C(=O)N[C@@H](CS)C(=O)O	0.18	0.023	
CC(=O)N[C@@H](CC(=O)O)C(=O)N[C@@H](CCC(=O)O)C(=O)N[C@@H](CC(C)C)C(=O)N[C@@H](CCC(=O)O)C(=O)N[C@@H](CC1CCCCC1)C(=O)N[C@@H](CS)C(=O)O	0.49	0.06	
CC(=O)N[C@@H](CCC(=O)O)C(=O)N[C@H](C(=O)N[C@@H](CCC(=O)O)C(=O)N[C@@H](CC1CCCCC1)C(=O)N[C@@H](CS)C(=O)O)C(c1ccccc1)c1ccccc1 (Ac-E[Dip]E[Cha]C-OH)	0.33	0.7	
CSCC[C@H](NC(=O)[C@H](CCC(=O)O)NC(=O)[C@H](CC(=O)O)NC(C)=O)C(=O)N[C@@H](CCC(=O)O)C(=O)N[C@@H](Cc1ccc2ccccc2c1)C(=O)N[C@@H](CS)C(=O)O (Ac-DEME[2Nal]C-OH)	1.04	0.18	
CC[C@H](C)[C@H](NC(=O)[C@H](CC(C)C)NC(=O)[C@@H](CC(C(=O)O)C(=O)O)NC(=O)[C@H](CC(=O)O)NC(C)=O)C(=O)N[C@@H](CC1CCCCC1)C(=O)N[C@@H](CS)C(=O)O (Ac-D[dGla]LI[Cha]C-OH)	0.012	0.00075	
Ac-DEMEEC-OH	0.36	0.5	
